# Patent publication US8927534B2, “Compounds for the inhibition of integrins and use thereof” (Shire Orphan Therapies GmbH, priority 2006, dated 2015)
# What was measured:
# Integrin alphaIIbbeta3 = Integrin alphaIIbbeta3 (Homo sapiens (Human), UniProt P05106+P08514); test: alphaIIbbeta3-Fibrinogen binding assay (competitive ELISA); conditions: inhibition of integrin binding to coated fibrinogen; read-out: IC50 alphabIIbbeta3
# Protocol: (§1) The optimal concentrations of integrin and ligand were selected from ELISA binding studies with variable concentrations of both to obtain optimal signal noise ratio for further studies. IC50 studies were performed with fixed concentration of ligand and integrin and a serial dilution of inhibitor. The plates were measured with SpectraMax Plus reader (Molecular Devices). The resulting inhibition curves were analyzed using SoftMaxPro 4.0 software, the turning point describes the IC50 value.
# (§2) Fibronectin was purchased from Sigma and fibrinogen from Calbiochem. (EMD Biosciences, Darmstadt, Germany). The integrin alpha5beta1 extracellular domain Fc-fusion was expressed and purified as described (Coe, 2001, J. Biol. Chem., 276, 35854). Integrin alphaIIbbeta3 was purchased form Kordia (Kordia Life Science, Leiden, Netherlands)
# Fibrinogen was diluted with coating buffer (15 mM Na2CO3, 35 mM NaHCO3, pH 9.6) and coated with 100 μL/well to Nunc-Immuno maxisorp plates over night at 4° C. After discarding the coating solution plates were washed 3 times with buffer 1 (25 mM Tris, pH 7.6, 150 mM NaCl, 1 mM MnCl2, 1 mg/ml BSA) and blocked with 100 μL blocking buffer (3% BSA in PBS 0.1% Tween20) for 1 hour at room temperature. After washing the blocked plates (3 times) with buffer 1, integrin alphaIIbbeta3 (50 μL) and either inhibitor (serial dilution in buffer 3, 25 mM Tris, pH 7.6, 150 mM NaCl, 1 mM MnCl2, 1 mg/ml BSA 1 mM MgCl2, 1 mM CaCl2,) or buffer 3 (50 μL) were added to the wells and incubated for one hour at RT. Plates were then washed (3 times) with buffer 3 and incubated with 100 μL of anti-alphaIIbbeta3 antibody (anti CD41b, Pharmingen) in buffer 3 for 1 hour at RT. Plates were washed (3 times) with buffer 3 and incubated for 1 hour with 100 μL secondary antibody (anti-mouse-HRP conjugate, Sigma) in buffer 3. After additional washing steps (3 times) with buffer 350 μL of HRP substrate solution TMB (Seramun) were added to the wells. Color development was stopped after 3-5 minutes with 50 μL 1 M H2SO4. The developed color was measured at 450 nm and analyzed as described above.
# [1] = biological target: integrin alpha5beta1 extracellular domain Fc-fusion (Homo sapiens (Human), UniProt P05556+P08648); test: alpha5beta1-Fibronectin binding assay (competitive ELISA); conditions: inhibition of integrin binding to coated fibronectin
# Protocol: as §1, §2
# Fibronectin was diluted with coating buffer (15 mM Na2CO3, 35 mM NaHCO3, pH 9.6) and coated with 100 μL/well to Nunc-Immuno maxisorp plates (Nalge Nunc Europe Ltd) over night at 4° C. After discarding the coating solution plates were washed 3 times with buffer 1 (25 mM Tris, pH 7.6, 150 mM NaCl, 1 mM MnCl2, 1 mg/ml BSA) and blocked with 100 μL blocking buffer (3% BSA in PBS 0.1% Tween20) for 1 hour at room temperature. After washing the blocked plates (3 times) with buffer 1, integrin (50 μL) and either inhibitor (serial dilution in buffer 1) or buffer 1 (50 μL) were added to the wells and incubated for one hour at RT. Plates were then washed (3 times) with buffer 1 and incubated with 100 μL of anti-human-Fc-HRP antibody conjugate (Sigma-Aldrich, Taufkirchen, Germany) in buffer 1 for 1 hour at RT. After additional washing steps (3 times) with buffer 150 μL of HRP substrate solution TMB (Seramun, Germany) were added to the wells. Color development was stopped after 3-5 minutes with 50 μL 1 M H2SO4. The developed color was measured at 450 nm and analyzed as described above.
# alpha5beta1 = alpha5beta1 (Homo sapiens (Human), UniProt P05556+P08648); test: Cell adhesion assay with HEK293; type: cell-based; conditions: HEK293 cells, fibronectin-coated plates, 1 h at 37° C., 2 mM MgCl2
# Protocol: Cryopreservated cells were thawed and grown for 72 h in DMEM medium with 10% FCS, 2 mM glutamine, 100 U/ml penicillin and 100 μg/ml streptomycin before use.
# Cells were detached with cell dissociation solution (Sigma) and suspended in growth medium, centrifuged and resuspended in buffer A (150 mM NaCl, 25 mM HEPES, 2 mM EDTA, pH 7.4). Cells were incubated for 30 min at 37° C. in a 5% CO2. Subsequently, cells were washed with pre-warmed buffer B (150 mM NaCl, 25 mM HEPES pH 7.4) and resuspended in buffer B. 96-well Maxisorp-plate were coated with 0.01% poly-L-lysine, 10 μg/ml fibronectin (Chemicon; #F1904) in carbonate buffer or carbonate buffer alone (15 mM Na2CO3, 35 mM NaHCO3, pH 9.6) for 1 h at RT. Plates were washed and blocked with 1% BSA for 30 min at RT. Cells were preincubated with test compound and adjusted DMSO concentrations for 10 min at RT. 7×10^4 cells per well were plated in triplicate and allowed to attach for 1 h at 37° C. in the presence of 2 mM MgCl2. Cells were washed with PBS and adherent cells were fixed with 5% glutaraldehyde for 30 min.
# Cells were subsequently washed and stained with 0.1% Crystal Violet for 1 hr at 37° C. Plates were washed and incorporated dye was solubilized with 10% acetic acid. Absorbance was measured at 570 nm using a Spectramax Plus 384 microtiter plate reader and analyzed with SoftMaxPro (Molecular Devices). Minimal binding on BSA was subtracted. IC50 values were determined using XL-FIT.
# HUVEC = test: Migration assay with HUVEC; type: cell-based; conditions: Homo sapiens, transwell coated with chymotryptic fibronectin fragment, 10 ng/ml bFGF chemoattractant, 3 h
# Protocol: Migration assays are carried out using modified Boyden chambers consisting of Fluoroblock Transwell membrane filter (8 μm pores) in 24 well companion tissue plates (BD). Three wells per group are used.
# The underfaces of the transwell membranes are coated with chymotryptic fibronectin fragment (10 μg/ml; Chemicon) and blocked with 2% BSA for 1 h at room temperature. After rinsing with PBS transwells are placed into companion plates containing 700 μl serumfree medium with indicated compound concentrations and chemoattractant (10 ng/ml bFGF; Promocell).
# HUVEC are maintained in standard culture medium (Endothelial Cell Growth Medium; Promocell, containing supplement mix and 2% FCS) in a humified 5% CO2 incubator at 37° C. Cells are grown to 70-90% confluency and are made quiescent in culture medium containing 0.5% FCS, 0.1% BSA, no supplements for 16 h. Medium is removed and serum-free medium (0% FCS; 0.1% BSA, no supplements) is added for 1.5 h. Cells are detached with trypsin and cell suspension is adjusted to 1×10^5/ml. Indicated compound concentrations are added to cells. Cells are preincubated with compounds for 15 min, before seeding of 250 μl of the cell suspensions into the transwells. Cells are allowed to migrate for 3 h in 37° C. incubator with 5% CO2. Then, transwells are transferred to 24 well companion tissue plates containing Calcein AM (4 μM; Molecular Probes) in HBSS and incubated for another 2 h. Plates are read at excitation/emission […] in a fluorescence reader.
# Results are expressed as percent of control (cells in serumfree medium without compound and chemoattractant.
IC50 (Integrin alphaIIbbeta3),IC50 [1],IC50 (alpha5beta1),Compound,IC50 (HUVEC)
> 1 µM,< 0.1 µM,< 2 µM,"Cc1ccnc(NCC2CCN(c3ccc(CC(NC(=O)C4(C)CCCCC4)C(=O)O)cc3)CC2)c1 (centres unmarked) [Compound 75, 2-(1-methylcyclohexanecarboxamido)-3-(4-(4-((4-methylpyridin-2-ylamino)methyl)piperidin-1-yl)phenyl)propanoic acid]",
> 1 µM,< 0.1 µM,< 2 µM,"CCc1cc(F)cc(C)c1C(=O)NC(Cc1ccc(N2CCC(CNc3ccccn3)CC2)cc1)C(=O)O (centres unmarked) [Compound 120, 2-(2-ethyl-4-fluoro-6-methylbenzamido)-3-(4-(4-((pyridin-2-ylamino)methyl)piperidin-1-yl)phenyl)propanoic acid]",< 10 µM
> 1 µM,< 0.1 µM,2 to 20 µM,"CC1(C(=O)NC(CC2CCN(C(=O)CCc3ccc4c(n3)NCCC4)CC2)C(=O)O)CCCCC1 (centres unmarked) [Compound 29, 2-(1-methylcyclohexanecarboxamido)-3-(1-(3-(5,6,7,8-tetrahydro-1,8-naphthyridin-2-yl)propanoyl)piperidin-4-yl)propanoic acid]",> 20 µM
> 1 µM,< 0.1 µM,> 20 µM,"CCCNC(=O)NCC1CCN(c2ccc(CC(NC(=O)c3c(C)cc(C)cc3C)C(=O)O)cc2)CC1 (centres unmarked) [Compound 269, 3-(4-{4-[(3-propyl-ureido)methyl]piperidin-1-yl}phenyl)-2-(2,4,6-trimethyl-benzoylamino)propionic acid]",
> 1 µM,< 0.1 µM,< 2 µM,"Cc1ccnc(NCC2CCN(c3ccc(CC(NC(=O)c4c(C)cc(C)cc4C)C(=O)O)cc3)CC2)c1 (centres unmarked) [Compound 8, 3-(4-(4-((4-methylpyridin-2-ylamino)methyl)piperidin-1-yl)phenyl)-2-(2,4,6-trimethylbenzamido)propanoic acid]",< 10 µM
> 1 µM,> 0.1 µM,> 20 µM,"Cc1cc(C)c(C(=O)NC(Cc2ccc(N3CC(CNc4ccccn4)C3)cc2)C(=O)O)c(C)c1 (centres unmarked) [Compound 11, 3-(4-(3-((pyridin-2-ylamino)methyl)azetidin-1-yl)phenyl)-2-(2,4,6-trimethylbenzamido)propanoic acid]",
,< 0.1 µM,< 2 µM,"COc1ccnc(NCC2CCN(c3ccc(CC(NC(=O)c4c(C)cc(C)cc4C)C(=O)O)cc3)CC2)c1 (centres unmarked) [Compound 147, 3-(4-(4-((4-methoxypyridin-2-ylamino)methyl)piperidin-1-yl)phenyl)-2-(2,4,6-trimethylbenzamido)propanoic acid]",
> 1 µM,< 0.1 µM,< 2 µM,"Cc1ccnc(NCC2CCN(c3ccc(CC(NC(=O)C(c4ccccc4)C(C)C)C(=O)O)cc3)CC2)c1 (centres unmarked) [Compound 266, 2-(3-methyl-2-phenyl-butyrylamino)-3-(4-{4-[(4-methyl-pyridin-2-ylamino)methyl]piperidin-1-yl}phenyl)propionic acid]",
,< 0.1 µM,2 to 20 µM,"Cc1ccnc(NCC2CCN(c3ccc(CC(NC(=O)c4ccccc4)C(=O)O)cc3)CC2)c1 (centres unmarked) [Compound 262, 2-benzoylamino-3-(4-{4-[(4-methyl-pyridin-2-ylamino)methyl]piperidin-1-yl}phenyl)propionic acid]",
,< 0.1 µM,< 2 µM,"Cc1ccnc(NCC2CC(=O)N(c3ccc(CC(NC(=O)c4c(C)cc(C)cc4C)C(=O)O)cc3)C2)c1 (centres unmarked) [Compound 114, 3-(4-(4-((4-methylpyridin-2-ylamino)methyl)-2-oxopyrrolidin-1-yl)phenyl)-2-(2,4,6-trimethylbenzamido)propanoic acid]",< 10 µM
> 1 µM,< 0.1 µM,< 2 µM,"Cc1cc(C)c(C(=O)NC(Cc2ccc(N3CCC(c4ccc5c(n4)NCCC5)CC3)cc2)C(=O)O)c(C)c1 (centres unmarked) [Compound 23, 3-(4-(4-(5,6,7,8-tetrahydro-1,8-naphthyridin-2-yl)piperidin-1-yl)phenyl)-2-(2,4,6-trimethylbenzamido)propanoic acid]",< 10 µM
> 1 µM,> 0.1 µM,2 to 20 µM,"Cc1cc(C)c(C(=O)NC(Cc2ccc(N3CCC(CNc4nc5ccccc5[nH]4)CC3)cc2)C(=O)O)c(C)c1 (centres unmarked) [Compound 20, 3-(4-(4-((1H-benzo[d]imidazol-2-ylamino)methyl)piperidin-1-yl)phenyl)-2-(2,4,6-trimethylbenzamido)propanoic acid]",
